As usually defined, the Kd is the concentration at which binding is half-saturated. One may read the melting point as the temperature, or range, at which the solid turns liquid. What is called MIC is the least concentration at which growth counts as inhibited.

≈ marks a conversion by molar mass, not a printed value. Where two headings read alike, the source gives them in different places.

Results on 27 compounds are retold here after article PMC6646865, “Design and Synthesis of Imidazole and Triazole Pyrazoles as Mycobacterium Tuberculosis CYP121A1 Inhibitors” (ChemistryOpen, 2019).

Data set [1] has as its target T1, CYP121A1 (Mycobacterium tuberculosis, UniProt P9WPP7).
T1 construct: made in house
Put plainly: biochemical. It counts as binding. The note with it: for Soret peak shift: Soret maximum ligand-free to ligand-bound CYP121A1; for Kd: UV-vis optical titration, 3–5 μM CYP121A1, 25 °C, pH 7.85, triplicate; for Soret maxima shifting by: extent of the Soret absorbance red shift on binding.

The subject of data set [2] is M. tuberculosis H37Rv. Put plainly: Antimycobacterial activity, REMA (Resazurin Microtiter Assay) MIC. The class given is cell-based, Mycobacterium tuberculosis. The note with it: lowest concentration giving 90 % inhibition, 7 days 37 °C. For orientation: Resazurin is reduced to fluorescent resorufin, in cell work by metabolically active cells.
Data set [3] concerns M. tuberculosis H37Rv. On the set-up: method as in PMID 29185746. The note with it: lead compounds; cited from earlier work.
In data set [4] the target is T1, CYP121A1. The note with it: cited from earlier work; for Soret peak shift: lead compounds and cYY (type I shift for cYY); for Kd: lead compounds and natural substrate cYY; for Soret peak shift to: azole antifungal drugs binding Mtb CYP121A1.
Where [5] appears, read: Mycobacterium tuberculosis, H37RV, 168 h, read-out: MIC.

T1 sequence (P9WPP7 whole entry): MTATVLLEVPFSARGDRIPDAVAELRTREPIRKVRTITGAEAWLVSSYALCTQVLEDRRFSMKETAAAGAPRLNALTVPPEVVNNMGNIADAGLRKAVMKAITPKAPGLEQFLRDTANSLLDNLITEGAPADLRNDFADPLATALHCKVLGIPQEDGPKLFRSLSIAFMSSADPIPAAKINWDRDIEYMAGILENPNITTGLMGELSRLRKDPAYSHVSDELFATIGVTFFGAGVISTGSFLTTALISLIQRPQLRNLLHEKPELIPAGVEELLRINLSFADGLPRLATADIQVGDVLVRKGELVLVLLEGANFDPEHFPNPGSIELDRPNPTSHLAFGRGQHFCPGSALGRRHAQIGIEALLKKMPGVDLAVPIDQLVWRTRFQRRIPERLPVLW

`c1ccc(-n2cc(Cn3ccnc3)c(-c3ccncc3)n2)cc1` [10 a, 4‐(4‐((1H‐Imidazol‐1‐yl)methyl)‐1‐phenyl‐1H‐pyrazol‐3‐yl)pyridine] returned a melting point of 80 to 82 °C. Also, at CYP121A1 [1], the Soret peak shift is 416.5 to 419 nm and the Kd is 60.5 ± 10.5 µM. In addition, the MIC in the data set with M. tuberculosis H37Rv [2] (setting [5]) was 12.5 to 25 µg/mL (≈ 41.5 to 83 µM). The compound further yielded an MIC in the data set on M. tuberculosis H37Rv [2] of 12.5 µg/mL (≈ 41.5 µM).

For `c1ccc(-n2cc(Cn3ccnc3)c(-c3cccnc3)n2)cc1` [10 b, 3‐(4‐((1H‐Imidazol‐1‐yl)methyl)‐1‐phenyl‐1H‐pyrazol‐3‐yl)pyridine], on CYP121A1 [1], the Soret peak shift is recorded as 416.5 to 421 nm and binding was characterised by a dissociation constant (Kd) of 53.6 ± 6.8 µM. Further, the MIC with M. tuberculosis H37Rv [2] (setting [5]) lay within 12.5 to 25 µg/mL (≈ 41.5 to 83 µM). The compound further registered an MIC in the data set with M. tuberculosis H37Rv [2] of 12.5 µg/mL (≈ 41.5 µM).

In turn, `CCc1ccc(-c2nn(-c3ccccc3)cc2Cn2ccnc2)cc1` [10 c, 4‐((1H‐Imidazol‐1‐yl)methyl)‐3‐(4‐ethylphenyl)‐1‐phenyl‐1H‐pyrazole] showed a melting point of 74 to 76 °C. Besides, at CYP121A1 [1], the Soret peak shift lay in the range of 416.5 to 420 nm and the Kd turned out to be 18.3 ± 3.4 µM. Besides, in the data set on M. tuberculosis H37Rv [2] (setting [5]), the MIC is 1.56 µg/mL (≈ 4.76 µM).

Turning to `CCCc1ccc(-c2nn(-c3ccccc3)cc2Cn2ccnc2)cc1` [10 d, 4‐((1H‐Imidazol‐1‐yl)methyl)‐1‐phenyl‐3‐(4‐propylphenyl)‐1H‐pyrazole], on CYP121A1 [1], the Soret peak shift lay within 416.5 to 420 nm and the Kd is 53.7 ± 5.9 µM. In the data set on M. tuberculosis H37Rv [2] (setting [5]), the MIC is 0.781 µg/mL (≈ 2.28 µM).

For `CC(C)c1ccc(-c2nn(-c3ccccc3)cc2Cn2ccnc2)cc1` [10 e, 4‐((1H‐Imidazol‐1‐yl)methyl)‐3‐(4‐isopropylphenyl)‐1‐phenyl‐1H‐pyrazole], on CYP121A1 [1], the Soret peak shift lay within 416.5 to 423 nm, the Kd was found to be 22.5 ± 3.5 µM and the “Soret maxima shifting by” value came to 6.5 nm. The minimum inhibitory concentration (MIC) in the data set on M. tuberculosis H37Rv [2] (setting [5]) stood at 1.56 µg/mL (≈ 4.56 µM).

Turning to `CC(C)Cc1ccc(-c2nn(-c3ccccc3)cc2Cn2ccnc2)cc1` [10 f, 4‐((1H‐Imidazol‐1‐yl)methyl)‐3‐(4‐isobutylphenyl)‐1‐phenyl‐1H‐pyrazole], at CYP121A1 [1], the Soret peak shift fell in the range of 416.5 to 423.5 nm, the Kd was found to be 0.22 ± 0.01 µM and the “Soret maxima shifting by” value is 7 nm. For the same compound, the MIC in the data set on M. tuberculosis H37Rv [2] (setting [5]) turned out to be 1.56 µg/mL (≈ 4.38 µM).

`CC(C)(C)c1ccc(-c2nn(-c3ccccc3)cc2Cn2ccnc2)cc1` [10 g, 4‐((1H‐Imidazol‐1‐yl)methyl)‐3‐(4‐(tert‐butyl)phenyl)‐1‐phenyl‐1H‐pyrazole] registered a melting point of 116 to 117 °C. At CYP121A1 [1], the Soret peak shift is reported as 416.5 to 419.5 nm and the Kd is 4.81 ± 0.31 µM. In addition, the MIC in the data set on M. tuberculosis H37Rv [2] (setting [5]) turned out to be 1.56 µg/mL (≈ 4.38 µM).

Take `c1ccc(-c2ccc(-c3nn(-c4ccccc4)cc3Cn3ccnc3)cc2)cc1` [10 h, 4‐((1H‐Imidazol‐1‐yl)methyl)‐3‐([1,1′‐biphenyl]‐4‐yl)‐1‐phenyl‐1H‐pyrazole]: the melting point was 114 to 115 °C. Moreover, on CYP121A1 [1], the Soret peak shift was in the range of 416.5 to 423.5 nm, the Kd amounted to 2.91 ± 0.14 µM and the “Soret maxima shifting by” value is recorded as 7 nm. Moreover, the MIC with M. tuberculosis H37Rv [2] (setting [5]) stood at 3.12 µg/mL (≈ 8.3 µM).

On to `c1ccc(-n2cc(Cn3ccnc3)c(-c3ccc4c(c3)OCO4)n2)cc1` [10 i, 4‐((1H‐Imidazol‐1‐yl)methyl)‐3‐(benzo[d][1,3]dioxol‐5‐yl)‐1‐phenyl‐1H‐pyrazole], for which the melting point fell in the range of 62 to 64 °C. Also, at CYP121A1 [1], the Soret peak shift is recorded as 416.5 to 422.5 nm and the Kd is 10.1 ± 0.3 µM. Moreover, in the data set on M. tuberculosis H37Rv [2] (setting [5]), the MIC worked out at 3.12 µg/mL (≈ 9.07 µM).

Take `Clc1[nH]c2ccccc2c1-c1nn(-c2ccccc2)cc1Cn1ccnc1` [10 j, 3‐(4‐((1H‐Imidazol‐1‐yl)methyl)‐1‐phenyl‐1H‐pyrazol‐3‐yl)‐2‐chloro‐1H‐indole]: at CYP121A1 [1], the Soret peak shift was 416.5 to 423.5 nm; the affinity, expressed as Kd, was 3.31 ± 0.05 µM; the “Soret maxima shifting by” value is reported as 7 nm. Further, the MIC with M. tuberculosis H37Rv [2] (setting [5]) is 12.5 to 25 µg/mL (≈ 33.4 to 66.9 µM). In the data set with M. tuberculosis H37Rv [2], this compound came in with an MIC of 25 µg/mL (≈ 66.9 µM).

On to `c1ccc(-n2cc(Cn3cncn3)c(-c3ccncc3)n2)cc1` [11 a, 4‐(4‐((1H‐1,2,4‐Triazol‐1‐yl)methyl)‐1‐phenyl‐1H‐pyrazol‐3‐yl)pyridine], for which the melting point is 98 to 100 °C. On CYP121A1 [1], the Soret peak shift was in the range of 416.5 to 417.5 nm and the affinity, expressed as Kd, was 115 ± 27 µM. Further, the MIC with M. tuberculosis H37Rv [2] (setting [5]) was greater than 100 µg/mL.

Compound `c1ccc(-n2cc(Cn3cncn3)c(-c3cccnc3)n2)cc1` [11 b, 3‐(4‐((1H‐1,2,4‐Triazol‐1‐yl)methyl)‐1‐phenyl‐1H‐pyrazol‐3‐yl)pyridine] displayed a melting point of 110 to 112 °C. On CYP121A1 [1], the Soret peak shift is reported as 416.5 to 417.5 nm and binding was put at a Kd of 250 ± 51.6 µM. Besides, the MIC in the data set on M. tuberculosis H37Rv [2] (setting [5]) was greater than 100 µg/mL.

`O=C(NCCCn1ccnc1)c1cn(-c2ccccc2)nc1-c1ccncc1` [13 a, N‐(3‐(1H‐Imidazol‐1‐yl)propyl)‐1‐phenyl‐3‐(pyridin‐4‐yl)‐1H‐pyrazole‐4‐carboxamide] returned a melting point of 104 to 106 °C. Besides, at CYP121A1 [1], the Soret peak shift is given as 416.5 to 423.5 nm, the Kd stood at 83.2 ± 3.9 µM and the “Soret maxima shifting by” value worked out at 7 nm. Further, the MIC in the data set with M. tuberculosis H37Rv [2] (setting [5]) was determined as 100 µg/mL (≈ 269 µM).

`O=C(NCCCn1ccnc1)c1cn(-c2ccccc2)nc1-c1cccnc1` [13 b, N‐(3‐(1H‐Imidazol‐1‐yl)propyl)‐1‐phenyl‐3‐(pyridin‐3‐yl)‐1H‐pyrazole‐4‐carboxamide] showed a melting point of 80 to 82 °C. In addition, on CYP121A1 [1], the Soret peak shift lay within 416.5 to 417.5 nm and the Kd was determined as 85.6 ± 12.4 µM. For the same compound, the MIC with M. tuberculosis H37Rv [2] (setting [5]) was greater than 100 µg/mL.

As for `O=C(NCc1ccncc1)c1cn(-c2ccccc2)nc1-c1ccncc1` [14 a, 1‐Phenyl‐3‐(pyridin‐4‐yl)‐N‐(pyridin‐4‐ylmethyl)‐1H‐pyrazole‐4‐carboxamide], the melting point lay in the range of 206 to 208 °C. Also, at CYP121A1 [1], the Soret peak shift is on record as 416.5 to 419.5 nm and the Kd amounted to 219 ± 13.6 µM. In addition, in the data set on M. tuberculosis H37Rv [2] (setting [5]), the MIC is greater than 100 µg/mL.

`O=C(NCc1ccncc1)c1cn(-c2ccccc2)nc1-c1cccnc1` [14 b, 1‐Phenyl‐3‐(pyridin‐3‐yl)‐N‐(pyridin‐4‐ylmethyl)‐1H‐pyrazole‐4‐carboxamide] registered a melting point of 206 to 208 °C. Moreover, on CYP121A1 [1], the Soret peak shift lay in the range of 416.5 to 417.5 nm and the affinity, expressed as Kd, was 39 ± 8.2 µM. Further, in the data set with M. tuberculosis H37Rv [2] (setting [5]), the MIC was greater than 100 µg/mL.

Take `Clc1ccccc1C(c1ccccc1)(c1ccccc1)n1ccnc1` [Clotrimazole, clotrimazole, reference compound]: the minimal inhibitory concentration (MIC) in the data set with M. tuberculosis H37Rv [2] (setting [5]) is 20 µg/mL (≈ 58 µM).

As for `c1ccc(-c2nn(-c3ccccc3)cc2Cn2ccnc2)cc1` [Compound 1, (1,3‐diphenyl)‐4‐((1,3‐imidazol‐1‐yl)methyl)‐1H‐pyrazole], the MIC in the data set on M. tuberculosis H37Rv [3] was 12.5 µg/mL (≈ 41.6 µM). Moreover, on CYP121A1 [4], the Soret peak shift is 416.5 to 424 nm and the Kd is 2.6 ± 0.2 µM.

For `c1ccc(-c2nn(-c3ccccc3)cc2Cn2cncn2)cc1` [Compound 2, 1‐((1,3‐diphenyl‐1H‐pyrazol‐4‐yl)methyl)‐1H‐1, 2, 4triazole], the minimum inhibitory concentration (MIC) with M. tuberculosis H37Rv [3] was 50 µg/mL (≈ 166 µM). Further, on CYP121A1 [4], the Soret peak shift is on record as 416.5 to 422.5 nm and the Kd is 73.5 ± 0.7 µM.

As to `COc1ccc(-n2nc(Cn3ccnc3)cc2C)cc1` [Compound 23, 3‐((1H‐Imidazol‐1‐yl)methyl)‐1‐(4‐methoxyphenyl)‐5‐methyl‐1H‐pyrazole], on CYP121A1 [1], the Soret peak shift is on record as 416.5 to 418 nm and binding was put at a Kd of 34.5 ± 4.8 µM.

On to `COc1ccc(-n2nc(Cn3cncn3)cc2C)cc1` [Compound 24, 1‐((1‐(4‐Methoxyphenyl)‐5‐methyl‐1H‐pyrazol‐3‐yl)methyl)‐1H‐1,2,4‐triazole], for which, on CYP121A1 [1], the Soret peak shift is 416.5 to 418 nm and the Kd was determined as 105 ± 7 µM. Besides, in the data set with M. tuberculosis H37Rv [2] (setting [5]), the MIC was greater than 100 µg/mL.

For `COc1ccc(-n2nc(C)cc2Cn2ccnc2)cc1` [Compound 25, 5‐((1H‐Imidazol‐1‐yl)methyl)‐1‐(4‐methoxyphenyl)‐3‐methyl‐1H‐pyrazole], on CYP121A1 [1], the Soret peak shift fell in the range of 416.5 to 418.5 nm and the Kd amounted to 22.9 ± 0.2 µM. For the same compound, the MIC with M. tuberculosis H37Rv [2] (setting [5]) was 25 µg/mL (≈ 93.2 µM).

The compound `COc1ccc(-n2nc(C)cc2Cn2cncn2)cc1` [Compound 26, 1‐((1‐(4‐Methoxyphenyl)‐3‐methyl‐1H‐pyrazol‐5‐yl)methyl)‐1H‐1,2,4‐triazole] gave a melting point of 47 to 48 °C. At CYP121A1 [1], this compound displayed a Kd of 98.3 ± 7.4 µM. The MIC in the data set on M. tuberculosis H37Rv [2] (setting [5]) was found to be 100 µg/mL (≈ 371 µM).

Consider `OC(Cn1cncn1)(Cn1cncn1)c1ccc(F)cc1F` [Fluconazole, fluconazole, reference compound], for which, in the data set on M. tuberculosis H37Rv [2] (setting [5]), the MIC was greater than 100 µg/mL.

On to `Clc1ccc(COC(Cn2ccnc2)c2ccc(Cl)cc2Cl)cc1` (centres unmarked) [econazole], for which the “Soret peak shift to” value at CYP121A1 [4] is listed as 421–423.5 nm.

For the compound `CC(=O)N1CCN(c2ccc(OCC3COC(Cn4ccnc4)(c4ccc(Cl)cc4Cl)O3)cc2)CC1` (centres unmarked) [ketoconazole], at CYP121A1 [4], the “Soret peak shift to” value is 421–423.5 nm.

As to `Clc1ccc(COC(Cn2ccnc2)c2ccc(Cl)cc2Cl)c(Cl)c1` (centres unmarked) [miconazole], the “Soret peak shift to” value on CYP121A1 [4] is 421–423.5 nm.
